ChEMBL document CHEMBL1153225 (Bioorg Med Chem Lett, 2010)

System: RAW264.7
Experiment: Antiresorptive activity in mouse RAW264.7 cells assessed as inhibition of tartrate-resistant acid phosphatase activity at 60 uM
Set-up: scale not given: the % may be the effect or the level left

In the case of `CCCCC/C(=N/S(=O)(=O)c1ccc(C)cc1)N1C(C)CCCC1C` (stereo unspecified), the Activity is reported as 0%.
